Data reported in patent publication US20210254056A1, “IDENTIFICATION AND TARGETED MODULATION OF GENE SIGNALING NETWORKS” (CAMP4 THERAPEUTICS CORPORATION, priority 2017, published 2021).

Tests used:
[1] = system: primary human hepatocytes; test: RNA-seq of primary human hepatocytes treated with 39 small molecules (pilot and validation)
[2] = system: hepatocytes; test: RNA-seq of hepatocytes treated with Phase III failure compounds; conditions: hepatocytes
Experimental: RNA-seq was performed to determine the effects of the compounds on hepatocytes.
Significance was determined by the criteria of FPKM≥0.5, a log 2(fold-change)≥1, and a […].

## CCCc1cc(=O)[nH]c(=S)[nH]1 [MT-127, Propylthiouracil]
[1]; RNA-seq, p-value≤0.05, primary human hepatocytes, the modulated genes are listed in the block
  significant modulation of gene expression: significantly (p-value≤0.05) modulate
[1]; pilot RNA-seq study of Example 2, significance: FPKM≥0.5, log 2(fold change)≥1, q-value ≤0.05
  Number (#) of genes having significantly changed expression: 8

## COc1nc(C)cnc1NS(=O)(=O)c1cccnc1-c1ccc(-c2nnco2)cc1 [Zibotentan]
[2]; RNA-seq, Phase III failure compounds, significance: FPKM≥0.5, log 2(fold-change)≥1, q-value≥0.05 (so in the source)
  Number (#) of genes having significantly changed expression: 505
[2]; RNA-seq, q≤0.05, genes in the value or listed in the block
  significant modulation of expression of disease genes: significantly (q≤0.05) modulate expression
[2]; gene B2M
  B2M expression, RNA-seq result: −0.49
[2]; gene B9D2
  B9D2 expression, RNA-seq result: −0.43
[2]; gene BAAT
  BAAT expression, RNA-seq result: 0.17
[2]; gene BBOX1
  BBOX1 expression, RNA-seq result: −0.45
[2]; gene BBS10
  BBS10 expression, RNA-seq result: 0.26
[2]; gene BCHE
  BCHE expression, RNA-seq result: 0.02
[2]; gene BCKDHB
  BCKDHB expression, RNA-seq result: −0.16
[2]; gene BCKDK
  BCKDK expression, RNA-seq result: −0.21
[2]; gene BCO1
  BCO1 expression, RNA-seq result: −0.38
[2]; gene BCR
  BCR expression, RNA-seq result: 0.14
[2]; gene BLNK
  BLNK expression, RNA-seq result: 0.09
[2]; gene BLOC1S3
  BLOC1S3 expression, RNA-seq result: 0.15
[2]; gene BMPR1A
  BMPR1A expression, RNA-seq result: 0.51
[2]; gene BRAF
  BRAF expression, RNA-seq result: 0.82
[2]; gene BSCL2
  BSCL2 expression, RNA-seq result: −3.20
[2]; gene BTD
  BTD expression, RNA-seq result: 0.19
[2]; gene C4A
  C4A expression, RNA-seq result: 0.20
[2]; gene C9
  C9 expression, RNA-seq result: −0.13
[2]; gene C10orf10
  C10orf10 expression, RNA-seq result: −0.49
[2]; gene C10orf11
  C10orf11 expression, RNA-seq result: −0.62
[2]; gene C15orf41
  C15orf41 expression, RNA-seq result: 0.50
[2]; gene CA2
  CA2 expression, RNA-seq result: −0.44
[2]; gene CA5A
  CA5A expression, RNA-seq result: 0.23
[2]; gene CA12
  CA12 expression, RNA-seq result: 0.06
[2]; gene CAV1
  CAV1 expression, RNA-seq result: 0.15
[2]; gene CCND1
  CCND1 expression, RNA-seq result: 0.25
[2]; gene CD46
  CD46 expression, RNA-seq result: 0.05
[2]; gene CD81
  CD81 expression, RNA-seq result: −0.76
[2]; gene CD320
  CD320 expression, RNA-seq result: −0.95
[2]; gene CDAN1
  CDAN1 expression, RNA-seq result: 0.10
[2]; gene CDH1
  CDH1 expression, RNA-seq result: 0.50
[2]; gene CEP19
  CEP19 expression, RNA-seq result: −0.43
[2]; gene CEP83
  CEP83 expression, RNA-seq result: 0.33
[2]; gene CEP164
  CEP164 expression, RNA-seq result: 0.05
[2]; gene CEP290
  CEP290 expression, RNA-seq result: 0.01
[2]; gene CFB
  CFB expression, RNA-seq result: −0.28
[2]; gene CFHR2
  CFHR2 expression, RNA-seq result: −0.93
[2]; gene CHRM3
  CHRM3 expression, RNA-seq result: 0.20
[2]; gene CIDEC
  CIDEC expression, RNA-seq result: −0.40
[2]; gene CLDN1
  CLDN1 expression, RNA-seq result: 0.16
[2]; gene COG1
  COG1 expression, RNA-seq result: 0.25
